This is an account of results in US20250353891A1 (MEDIMMUNE LIMITED, priority 2022, published 2025).

Where two headings read alike, the source gives them in different places. Starred links: 1 amine or outer side, 2 acyl side, 3 side chain; linkers in the order of their positions; H or OH if unused. Non-standard residues stand in square brackets, D forms with d. Residues, ends and D or L forms follow the SMILES beside them. Groups on a side chain read outwards from the residue. *: point of attachment. C20 diacid = O=C(O)CCCCCCCCCCCCCCCCCCC(=O)*; γGlu = O=C(O)[C@H](CCC(=O)[*:2])N[*:1]; Stearoyl = CCCCCCCCCCCCCCCCCC(=O)*; Palmitoyl = CCCCCCCCCCCCCCCC(=O)*; αMeF = C[C@](N)(Cc1ccccc1)C(=O)O; αMeS = C[C@](N)(CO)C(=O)O; PEG2 = NCCOCCOCCC(=O)O; AEEA = NCCOCCOCC(=O)O; Aib = CC(C)(N)C(=O)O

Assay [1] concerns the target human glucagon receptor (hGCGR) (Homo sapiens, UniProt P47871). Briefly: cAMP production (HTRF) in CHO cells expressing hGCGR. The class given is cell-based. Further details: expressed in transfected cells. Particulars: cAMP in CHO hGCGR cells, geometric mean, read-out: hGluc-R EC50. The procedure, abridged: (§1)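 Cells were resuspended in assay buffer at batch-optimized density, typically 1×10^5 cells/mL for hGLP-1R and 2×10^5 cells/mL for hGCGR. After 30 min incubation at room temperature with compound, cAMP was measured by two-step HTRF. EC50 values came from 4-parameter logistic fits of % Delta F.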
(cAMP levels reflect the balance of adenylyl cyclase and phosphodiesterase activity.)

In assay [2] the target is human GLP-1 receptor (hGLP-1R) (Homo sapiens, UniProt P43220). Briefly: cAMP production (HTRF) in CHO cells expressing hGLP-1R. The class given is cell-based. Further details: expressed in transfected cells. Particulars: for % Relative Potency Ratio: % GLP-1R activity relative to GLP-1 / % GlucR activity relative to glucagon; for EC50: cAMP in CHO hGLP-1R cells, geometric mean, read-out: hGLP-1R EC50. The essentials:
as §1

Setting [3] is: Table 6, peptides modified at position 17.
Where [4] appears, read: Table 7, peptides modified at position 20.

Sequence of human glucagon receptor (hGCGR) (P47871 26-477): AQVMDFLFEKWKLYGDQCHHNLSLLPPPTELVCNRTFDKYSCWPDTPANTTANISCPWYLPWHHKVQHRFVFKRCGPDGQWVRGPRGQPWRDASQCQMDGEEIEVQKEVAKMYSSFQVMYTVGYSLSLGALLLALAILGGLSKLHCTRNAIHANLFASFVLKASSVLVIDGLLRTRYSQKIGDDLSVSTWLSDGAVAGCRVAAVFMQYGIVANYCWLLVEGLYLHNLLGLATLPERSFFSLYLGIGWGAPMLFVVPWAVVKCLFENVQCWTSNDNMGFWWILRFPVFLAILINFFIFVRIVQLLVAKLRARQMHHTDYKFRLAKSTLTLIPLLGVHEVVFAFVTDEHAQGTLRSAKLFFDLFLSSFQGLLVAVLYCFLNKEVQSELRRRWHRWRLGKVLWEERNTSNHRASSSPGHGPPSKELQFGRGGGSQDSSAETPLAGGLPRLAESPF
Sequence of human GLP-1 receptor (hGLP-1R) (P43220 24-463): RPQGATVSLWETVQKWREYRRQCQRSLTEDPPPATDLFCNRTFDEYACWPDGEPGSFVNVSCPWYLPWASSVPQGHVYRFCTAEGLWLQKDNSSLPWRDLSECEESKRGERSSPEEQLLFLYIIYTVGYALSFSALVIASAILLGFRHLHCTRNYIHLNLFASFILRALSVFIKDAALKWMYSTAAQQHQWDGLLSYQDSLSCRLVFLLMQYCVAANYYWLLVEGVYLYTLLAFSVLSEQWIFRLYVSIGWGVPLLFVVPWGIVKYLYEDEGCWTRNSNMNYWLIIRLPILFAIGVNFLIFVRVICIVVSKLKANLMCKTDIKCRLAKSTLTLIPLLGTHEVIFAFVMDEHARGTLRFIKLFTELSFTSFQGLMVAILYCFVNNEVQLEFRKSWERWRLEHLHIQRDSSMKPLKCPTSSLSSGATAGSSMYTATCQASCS

Turning to `CCCCCCCCCCCCCCCC(=O)N[C@@H](CCC(=O)NCCOCCOCCC(=O)NCCOCCOCCC(=O)NCCCC[C@H](NC(=O)[C@H](CO)NC(=O)[C@H](CC(=O)O)NC(=O)[C@H](CC(C)C)NC(=O)[C@@H](NC(=O)[C@H](CCCCN)NC(=O)[C@H](CO)NC(=O)[C@@H](NC(=O)[C@H](CC(=O)O)NC(=O)[C@H](CO)NC(=O)[C@@H](NC(=O)[C@](C)(Cc1ccccc1)NC(=O)[C@H](CO)NC(=O)CNC(=O)[C@H](CCC(N)=O)NC(=O)[C@](C)(CO)NC(=O)[C@@H](N)Cc1c[nH]cn1)[C@@H](C)O)C(C)C)[C@@H](C)CC)C(=O)N[C@@H](C)C(=O)N[C@@H](C)C(=O)N[C@@H](CCC(N)=O)C(=O)N[C@@H](CC(=O)O)C(=O)N[C@@](C)(Cc1ccccc1)C(=O)N[C@H](C(=O)N[C@@H](CCC(N)=O)C(=O)NC(C)(C)C(=O)N[C@H](C(=O)N[C@H](C(=O)N[C@@H](CC(N)=O)C(=O)N[C@H](C(N)=O)[C@@H](C)O)[C@@H](C)CC)[C@@H](C)CC)C(C)C)C(=O)O` [Peptide 134] (H-H[αMeS]QGS[αMeF]TSDVSKILDSK([PEG2-PEG2-γGlu-Palmitoyl])AAQD[αMeF]VQ[Aib]IINT-NH2; N-terminus assumed), the EC50 in assay [1] (setting [3]) is 0.015 nM. For the same compound, in assay [2] (Table 6), the “% Relative Potency Ratio” value amounted to 50.1.
Consider `CC[C@H](C)[C@H](NC(=O)C(C)(C)NC(=O)[C@H](CCC(N)=O)NC(=O)[C@@H](NC(=O)[C@](C)(Cc1ccccc1)NC(=O)[C@H](CC(=O)O)NC(=O)[C@H](CCCCNC(=O)CC[C@H](NC(=O)CC[C@H](NC(=O)CCCCCCCCCCCCCCCCCCC(=O)O)C(=O)O)C(=O)O)NC(=O)[C@H](C)NC(=O)[C@H](C)NC(=O)[C@H](CCCNC(=N)N)NC(=O)[C@H](CO)NC(=O)[C@H](CC(=O)O)NC(=O)[C@H](CC(C)C)NC(=O)[C@](C)(Cc1ccccc1)NC(=O)[C@H](CCCCN)NC(=O)[C@H](CO)NC(=O)[C@@H](NC(=O)[C@H](CC(=O)O)NC(=O)[C@H](CO)NC(=O)[C@@H](NC(=O)[C@](C)(Cc1ccccc1)NC(=O)[C@H](CO)NC(=O)CNC(=O)[C@H](Cc1c[nH]cn1)NC(=O)C(C)(C)NC(=O)[C@@H](N)Cc1c[nH]cn1)[C@@H](C)O)C(C)C)C(C)C)C(=O)N[C@@H](C)C(=O)N[C@@H](CC(N)=O)C(=O)N[C@H](C(N)=O)[C@@H](C)O` [Peptide 275] (H-H[Aib]HGS[αMeF]TSDVSK[αMeF]LDSRAAK([γGlu-γGlu-C20 diacid])D[αMeF]VQ[Aib]IANT-NH2), for which the figures for the EC50 in assay [1] (setting [4]) and in assay [2] (setting [4]) were 0.175 nM and 0.111 nM, respectively. For the same compound, the “% Relative Potency Ratio” value in assay [2] (Table 7) is listed as 3.1.
`CC(C)C[C@H](NC(=O)[C@H](Cc1c[nH]c2ccccc12)NC(=O)[C@H](CCCNC(=N)N)NC(=O)[C@@H](NC(=O)[C@H](Cc1ccccc1)NC(=O)[C@H](CC(=O)O)NC(=O)[C@H](CCC(N)=O)NC(=O)[C@H](C)NC(=O)[C@H](CCCNC(=N)N)NC(=O)[C@H](CCCCNC(=O)COCCOCCNC(=O)COCCOCCNC(=O)CC[C@H](NC(=O)CCCCCCCCCCCCCCCCCCC(=O)O)C(=O)O)NC(=O)[C@H](CO)NC(=O)[C@H](CCC(=O)O)NC(=O)[C@H](CC(C)C)NC(=O)[C@](C)(Cc1ccccc1)NC(=O)[C@H](CCCCN)NC(=O)[C@H](CO)NC(=O)[C@@H](NC(=O)[C@H](CC(=O)O)NC(=O)[C@H](CO)NC(=O)[C@@H](NC(=O)[C@H](Cc1ccccc1)NC(=O)[C@@H](NC(=O)CNC(=O)[C@H](CCC(N)=O)NC(=O)C(C)(C)NC(=O)[C@@H](N)Cc1c[nH]cn1)[C@@H](C)O)[C@@H](C)O)C(C)C)C(C)C)C(=O)N[C@@H](CC(C)C)C(=O)N[C@@H](CCC(=O)O)C(=O)NC(C)(C)C(=O)N[C@@H](CCCCN)C(=O)O` [Peptide 504]: the EC50 in assay [1] (setting [3]) was determined as 0.551 nM; in assay [2] (setting [3]) it was 0.124 nM. For the same compound, in assay [2] (Table 6), the “% Relative Potency Ratio” value is recorded as 8.8.
Regarding `CCCCCCCCCCCCCCCCCC(=O)N[C@@H](CCC(=O)N[C@@H](CCC(=O)NCCOCCOCCC(=O)NCCOCCOCCC(=O)NCCCC[C@H](NC(=O)[C@H](CO)NC(=O)[C@H](CC(=O)O)NC(=O)[C@H](CC(C)C)NC(=O)[C@](C)(Cc1ccccc1)NC(=O)[C@H](CCCCN)NC(=O)[C@H](CO)NC(=O)[C@@H](NC(=O)[C@H](CC(=O)O)NC(=O)[C@H](CO)NC(=O)[C@@H](NC(=O)[C@](C)(Cc1ccccc1)NC(=O)[C@H](CO)NC(=O)CNC(=O)[C@H](CCC(N)=O)NC(=O)[C@H](CO)NC(=O)[C@@H](N)Cc1c[nH]cn1)[C@@H](C)O)C(C)C)C(=O)N[C@@H](C)C(=O)N[C@@H](C)C(=O)N[C@@H](CCC(N)=O)C(=O)N[C@@H](CC(=O)O)C(=O)N[C@@](C)(Cc1ccccc1)C(=O)N[C@H](C(=O)N[C@@H](CCC(N)=O)C(=O)NC(C)(C)C(=O)N[C@H](C(=O)N[C@H](C(=O)N[C@@H](CC(N)=O)C(=O)N[C@H](C(N)=O)[C@@H](C)O)[C@@H](C)CC)[C@@H](C)CC)C(C)C)C(=O)O)C(=O)O` [Peptide 83] (H-HSQGS[αMeF]TSDVSK[αMeF]LDSK([PEG2-PEG2-γGlu-γGlu-Stearoyl])AAQD[αMeF]VQ[Aib]IINT-NH2), the EC50 was determined as 0.0156 nM in assay [1] (setting [3]) and 0.00104 nM in assay [2] (setting [3]). Also, the “% Relative Potency Ratio” value in assay [2] (Table 6) amounted to 29.6.
On the same counts, the results for `CC[C@H](C)[C@H](NC(=O)[C@H](Cc1c[nH]c2ccccc12)NC(=O)[C@H](CCC(N)=O)NC(=O)[C@@H](NC(=O)[C@](C)(Cc1ccccc1)NC(=O)[C@H](CC(=O)O)NC(=O)[C@H](CCC(N)=O)NC(=O)[C@H](C)NC(=O)[C@H](C)NC(=O)[C@H](CCCCNC(=O)COCCOCCNC(=O)COCCOCCNC(=O)CC[C@H](NC(=O)CCCCCCCCCCCCCCCCCCC(=O)O)C(=O)O)NC(=O)[C@H](CO)NC(=O)[C@H](CC(=O)O)NC(=O)[C@H](CC(C)C)NC(=O)[C@](C)(Cc1ccccc1)NC(=O)[C@H](CCCCN)NC(=O)[C@H](CO)NC(=O)[C@@H](NC(=O)[C@H](CC(=O)O)NC(=O)[C@H](CO)NC(=O)[C@@H](NC(=O)[C@](C)(Cc1ccccc1)NC(=O)[C@H](CO)NC(=O)CNC(=O)[C@H](CCC(N)=O)NC(=O)[C@H](CO)NC(=O)[C@@H](N)Cc1c[nH]cn1)[C@@H](C)O)C(C)C)C(C)C)C(=O)N[C@@H](C)C(=O)N[C@@H](CC(N)=O)C(=O)N[C@H](C(N)=O)[C@@H](C)O` [Peptide 2] (H-HSQGS[αMeF]TSDVSK[αMeF]LDSK([AEEA-AEEA-γGlu-C20 diacid])AAQD[αMeF]VQWIANT-NH2; N-terminus assumed) are 4.19 nM, 1.28 nM and 6.5.
Consider `CCCCCCCCCCCCCCCCCC(=O)N[C@@H](CCC(=O)N[C@@H](CCC(=O)NCCOCCOCCC(=O)NCCOCCOCCC(=O)NCCCC[C@H](NC(=O)[C@H](CO)NC(=O)[C@H](CC(=O)O)NC(=O)[C@H](CC(C)C)NC(=O)C(C)(C)NC(=O)[C@H](CCCCN)NC(=O)[C@H](CO)NC(=O)[C@@H](NC(=O)[C@H](CC(=O)O)NC(=O)[C@H](CO)NC(=O)[C@@H](NC(=O)[C@](C)(Cc1ccccc1)NC(=O)[C@H](CO)NC(=O)CNC(=O)[C@H](CCC(N)=O)NC(=O)[C@H](CO)NC(=O)[C@@H](N)Cc1c[nH]cn1)[C@@H](C)O)C(C)C)C(=O)N[C@@H](C)C(=O)N[C@@H](C)C(=O)N[C@@H](CCC(N)=O)C(=O)N[C@@H](CC(=O)O)C(=O)N[C@@](C)(Cc1ccccc1)C(=O)N[C@H](C(=O)N[C@@H](CCC(N)=O)C(=O)NC(C)(C)C(=O)N[C@@H](CC(C)C)C(=O)N[C@@H](CCC(=O)O)C(=O)N[C@@H](C)C(N)=O)C(C)C)C(=O)O)C(=O)O` [Peptide 92] (H-HSQGS[αMeF]TSDVSK[Aib]LDSK([PEG2-PEG2-γGlu-γGlu-Stearoyl])AAQD[αMeF]VQ[Aib]LEA-NH2; N-terminus assumed), for which, in assay [1] (setting [3]), the EC50 turned out to be 0.0109 nM. In assay [2] (Table 6), the “% Relative Potency Ratio” value was found to be 24.1.

A word on the EC50: it is the concentration giving half of the maximal effect.
